Results taken from publication PMC6582486, “Stapled EGFR peptide reduces inflammatory breast cancer and inhibits additional HER-driven models of cancer” (Journal of Translational Medicine, 2019).
Like-named read-outs stand apart in the source and are kept apart here. Where a SMILES comes first, the peptide text is derived from it. Bridges are numbered along the chain shown (N, C = ends). Where no end group is shown, it is not given here. [ ]: non-standard residue; d: D form. R8 = C=CCCCCCC[C@@](C)(N)C(=O)O; S5 = C=CCCC[C@](C)(N)C(=O)O

What was measured:
[1] = test system: MDA-MB-468 breast cancer cells; format: cell-based, human; conditions: 24 h
Description: Fig. 1 Hydrocarbon stapling leads to increased EJ1 activity in comparison to HER-directed monoclonal therapies. a EJ1 sequence with PTD4 domain (underlined) corresponding to EGFR juxtamembrane domain sequence 643–663. Stabilized alpha helix (SAH) variations 1–5 beneath, with asterisks (*) indicating sites of staple. Control peptide (CP) with altered residues indicated by double underline. Stapled control (5) asterisks (*) indicate sites of staple. b Cartoon representation of EJ1 structure, with staple variation 5 highlighted. Positively charged residues indicated in blue, negatively charged residues in red. c Cartoon representation of CP structure, with staple variation highlighted. d Cell viability assay performed in MDA-MB-468 cells after 24 h comparing unstapled EJ1 versus staple variations SAH1, SAH4, and SAH5, with increasing concentrations. e Visualization of MDA-MB-468 cells untreated, treated with 10 µM EJ1, and 10 µM SAH5-EJ1 after 60 min. Scale bars represent 50 µm. f–h Cell viability assay performed in MDA-MB-468, MCF10A, or CHO cells over 3 days comparing treatment with Sapitinib (blue lines), SAH5-EJ1 (red lines), and SAH5-CP (grey lines). […] Data shown in d, f, g–i represent mean ± percent difference of assays performed in triplicate 1000–3000 cells were plated in 96-well plates (Falcon; Corning, NY) and allowed to adhere for 24–48 h prior to therapeutic introduction. Compounds were added and incubated on cells for 3 days in serum-containing media, followed by 2 h treatment with MTT (Sigma M5655) with the resulting formazan solubilized in DMSO. Absorbance was read at 540 nm by plate reader (uQuant, Bio-Tek Instruments). P-values were calculated from a one-way ANOVA.

[2] = test system: SUM149 inflammatory breast cancer cells; format: cell-based; conditions: SUM149, 10 µM
Description: 1000–3000 cells were plated in 96-well plates (Falcon; Corning, NY) and allowed to adhere for 24–48 h prior to therapeutic introduction. Compounds were added and incubated on cells for 3 days in serum-containing media, followed by 2 h treatment with MTT (Sigma M5655) with the resulting formazan solubilized in DMSO. Absorbance was read at 540 nm by plate reader (uQuant, Bio-Tek Instruments). P-values were calculated from a one-way ANOVA.
Fig. 4 SAH5-EJ1 effectively treats models of basal and inflammatory breast cancers while increasing survival. a Changes in tumor burden in breast cancer PDX mouse model TM01278 with various concentrations of intravenous SAH5-EJ1. Control represents water as a vehicle control. *p < 0.05 (Control vs 1 µg/g); **p < 0.01 (Control vs 1 µg/g and vs 10 µg/g). N = 6 for each condition. b Kaplan–Meier curve of breast PDX mouse model treated with control (blue) or either 1 or 10 µg/g SAH5-EJ1 (green and red, respectively) (red asterisks indicate time point at which mice could no longer receive injections due to site toxicity). Data shown represent mean. N = 6 for all groups. c Cell viability assay performed in SUM149 cells over 3 days comparing treatment with Sapitinib (blue) to SAH5-EJ1 (red) and SAH5-CP (grey). Solid lines represent 24 h; dashed lines represent 72 h. Data shown represent mean ± percent difference of assays performed in triplicate. d Kaplan–Meier curve of inflammatory breast cancer SUM149-injected mouse model treated with injected control (water) (blue) or either 0.5 or 5 µg/g SAH5-EJ1 (green and red, respectively). Data shown represent mean. N = 8 for all groups. e Changes in tumor burden in SUM149-generated tumors with various doses of SAH5-EJ1. Control represents water (blue). Arrow indicates transition from intravenous (IV) SAH5-EJ1 injections to intraperitoneal (IP) on day 66. **p < 0.01 (Control vs 0.5 µg/g and vs 5 µg/g). Data shown represent mean ± standard deviation. N = 8 for all groups. f Images of mouse tumors taken on Day 116. Arrowheads indicate tumor site. Representative images selected. […]

CHO cells = test: Cell viability assay (MTT), CHO; format: cell-based, Chinese Hamster; conditions: up to 3 days
Description: (§1) Fig. 1 Hydrocarbon stapling leads to increased EJ1 activity in comparison to HER-directed monoclonal therapies. a EJ1 sequence with PTD4 domain (underlined) corresponding to EGFR juxtamembrane domain sequence 643–663. Stabilized alpha helix (SAH) variations 1–5 beneath, with asterisks (*) indicating sites of staple. Control peptide (CP) with altered residues indicated by double underline. Stapled control (5) asterisks (*) indicate sites of staple. b Cartoon representation of EJ1 structure, with staple variation 5 highlighted. Positively charged residues indicated in blue, negatively charged residues in red. c Cartoon representation of CP structure, with staple variation highlighted. d Cell viability assay performed in MDA-MB-468 cells after 24 h comparing unstapled EJ1 versus staple variations SAH1, SAH4, and SAH5, with increasing concentrations. e Visualization of MDA-MB-468 cells untreated, treated with 10 µM EJ1, and 10 µM SAH5-EJ1 after 60 min. Scale bars represent 50 µm. f–h Cell viability assay performed in MDA-MB-468, MCF10A, or CHO cells over 3 days comparing treatment with Sapitinib (blue lines), SAH5-EJ1 (red lines), and SAH5-CP (grey lines). […] Absorbance was read at 540 nm by plate reader (uQuant, Bio-Tek Instruments). P-values were calculated from a one-way ANOVA.

MCF10A breast cells = test: Cell viability assay (MTT), MCF10A; format: cell-based, human; conditions: 72 h of treatment, maximum reduction
Description: as §1

[3] = cited from earlier work
Description: Despite variations in extracellular ligand binding abilities and intracellular tyrosine kinase activity, HER1-3 share homology in their juxtamembrane domain [15]. Within the juxtamembrane domain are sequences responsible for targeting HER proteins to the nucleus, binding to calcium/calmodulin, trafficking to the basolateral domain from the trans-Golgi network, and dimerization, an event required for HER activation and downstream signaling.

CC[C@H](C)[C@H](NC(=O)[C@H](Cc1c[nH]cn1)NC(=O)[C@H](CCCNC(=N)N)NC(=O)[C@H](CCCNC(=N)N)NC(=O)[C@H](CCCNC(=N)N)NC(=O)[C@H](CCSC)NC(=O)[C@H](Cc1ccccc1)NC(=O)[C@H](C)NC(=O)[C@H](CCCNC(=N)N)NC(=O)[C@H](C)NC(=O)[C@H](CCC(N)=O)NC(=O)[C@H](CCCNC(=N)N)NC(=O)[C@H](C)NC(=O)[C@H](C)NC(=O)[C@H](C)NC(=O)[C@H](CCCNC(=N)N)NC(=O)[C@H](C)NC(=O)[C@@H](N)Cc1ccc(O)cc1)C(=O)N[C@]1(C)CCCCCCC=CCCC[C@@](C)(C(=O)N[C@@H](CC(C)C)C(=O)N[C@@H](CC(C)C)C(=O)N[C@@H](CCC(N)=O)C(=O)N[C@@H](CCC(=O)O)C(=O)N[C@@H](CCCNC(=N)N)C(=O)N[C@@H](CCC(=O)O)C(N)=O)NC(=O)[C@H](CCCNC(=N)N)NC(=O)[C@H](CC(C)C)NC(=O)[C@H]([C@@H](C)O)NC(=O)[C@H](CCCNC(=N)N)NC(=O)[C@H](CCCCN)NC(=O)[C@H](CCCNC(=N)N)NC1=O [SAH1-EJ1] (H-YARAAARQARAFMRRRHI[R8]RKRTLR[S5]LLQERE-NH2; staple 19-26) gave an IC50 [1] of 10 µM.

Compound CC[C@H](C)[C@@H]1NC(=O)[C@H](Cc2c[nH]cn2)NC(=O)[C@H](CCCNC(=N)N)NC(=O)[C@H](CCCNC(=N)N)NC(=O)[C@H](CCCNC(=N)N)NC(=O)[C@](C)(NC(=O)[C@H](Cc2ccccc2)NC(=O)[C@H](C)NC(=O)[C@H](CCCNC(=N)N)NC(=O)[C@H](C)NC(=O)[C@H](CCC(N)=O)NC(=O)[C@H](CCCNC(=N)N)NC(=O)[C@H](C)NC(=O)[C@H](C)NC(=O)[C@H](C)NC(=O)[C@H](CCCNC(=N)N)NC(=O)[C@H](C)NC(=O)[C@@H](N)Cc2ccc(O)cc2)CCCCCCC=CCCC[C@@](C)(C(=O)N[C@@H](CCCCN)C(=O)N[C@@H](CCCNC(=N)N)C(=O)N[C@H](C(=O)N[C@@H](CC(C)C)C(=O)N[C@@H](CCCNC(=N)N)C(=O)N[C@@H](CCCNC(=N)N)C(=O)N[C@@H](CC(C)C)C(=O)N[C@@H](CC(C)C)C(=O)N[C@@H](CCC(N)=O)C(=O)N[C@@H](CCC(=O)O)C(=O)N[C@@H](CCCNC(=N)N)C(=O)N[C@@H](CCC(=O)O)C(N)=O)[C@@H](C)O)NC(=O)[C@H](C(C)C)NC1=O [SAH4-EJ1] (H-YARAAARQARAF[R8]RRRHIV[S5]KRTLRRLLQERE-NH2; staple 13-20) has an IC50 [1] of 10 µM.

With CNC(=O)CN1CCC(Oc2cc3c(Nc4cccc(Cl)c4F)ncnc3cc2OC)CC1 [Sapitinib, reference compound] the cell viability ([2]; 24 h) was “no reduction in cell viability”, the cell viability ([2]; 3 days) was 35% and the “efficacy / response in words” value (CHO cells) was “limited efficacy”. The “reduction of cell viability” value (MCF10A breast cells) was at most 70%.

In the case of YARAAARQARAFMRRRHIVRKRTLRRLLQERE [EJ1], the “time to degradation when introduced to plasma” value [3] is given as “less than 5 min” and the IC50 [1] is given as 18 µM.
